Patent US20110306606A1, “NOVEL 2,6-SUBSTITUTED-3-NITROPYRIDINE DERIVATIVE, METHOD FOR PREPARING SAME, AND PHARMACEUTICAL COMPOSITION INCLUDING SAME” (priority 2008, published 2011)

system: Osteoblasts (Calvarial cells); assay: Cytotoxicity test (MTT); details: 1 μM compound, 72 hours, in comparison with vehicle control
Experimental: For the preparation of osteoblasts (Calvarial cells), the calvaria were aseptically dissected from 1 to 2-day-old neonatal ICR mice and subjected to continuous reaction with a 0.2% collagenase solution to separate osteoblasts. The cell-suspended supernatant was centrifuged to recover osteoblasts which were grown to full confluence in an α-MEM supplemented with 10% FBS and then diluted to a desired cell density for use in the experiment.
Cytotoxicity of the compounds of the present invention was evaluated by carrying out the experiment described below.
The vehicle control group was established to contain 0.2% DMSO. 100 μL/well of the diluted drugs were dispensed into 96-well plates to which osteoblasts (calvarial cells) prepared in Experimental Example 1 were then added at a density of 1.0×10^4 cells/100 μL/well. Here, the final compound concentration in the cell culture was 1 μM, and the vehicle control group contained 0.1% DMSO. The cells were cultured in a 5% CO2 inhibitor at 37° for 72 hours. 25 μL of 3-(4,5-dimethyl-2-thiazolyl)-2,5-diphenyl-2H-tetrazolium bromide (MTT) dissolved in PBS (2 mg/mL) was added to each cell culture 4 hours before the end of culture. After completion of the reaction, the plates were centrifuged, the media were discarded, and 100 μL of formazan was added and dissolved in dimethyl sulfoxide (DMSO). Finally, the absorbance of the developed plates was measured at 540 nm. The cell viability was expressed as % concentration in comparison with the vehicle control group.

First: O=[N+]([O-])c1ccc(NCc2ccncc2)nc1Nc1ccc(N2CCCC(CO)C2)c(F)c1 (centres unmarked) [Compound 286, 2-{[3-fluoro-4-(3-hydroxymethylpiperidino)]phenylamino}-6-[(4-pyridyl)methylamino]-3-nitropyridine]
Second: NC(=O)C1CCCN(c2ccc(Nc3nc(NCc4ccncc4)ccc3[N+](=O)[O-])cc2F)C1 (centres unmarked) [Compound 311, 2-{[3-fluoro-4-(3-carbamoylpiperidino)]phenylamino}-6-[(4-pyridyl)methylamino]-3-nitropyridine]
The “Cell viability (%) Calvarial cell” value of the first is higher: 123% for the first, 98% for the second.

`O=[N+]([O-])c1ccc(NCCc2ccccn2)nc1Nc1ccc(N2CCCC(CO)C2)c(F)c1` (centres unmarked) [Compound 287, 2-{[3-fluoro-4-(3-hydroxymethylpiperidino)]phenylamino}-6-[2-(2-pyridyl)ethylamino]-3-nitropyridine] and `O=[N+]([O-])c1ccc(NC2CC2)nc1Nc1ccc(N2CCCC(CO)C2)c(F)c1` (centres unmarked) [Compound 288, 2-{[3-fluoro-4-(3-hydroxymethylpiperidino)]phenylamino}-6-(cyclopropylamino)-3-nitropyridine] are the same in “Cell viability (%) Calvarial cell” value: 103% for the first, 103% for the second.

Going from `CNc1ccc([N+](=O)[O-])c(Nc2ccc(N3CCC(C(N)=O)CC3)c(F)c2)n1` [Compound 289, 2-{[3-fluoro-4-(4-carbamoylpiperidino)]phenylamino}-6-(methylamino)-3-nitropyridine] to `CNc1ccc([N+](=O)[O-])c(Nc2ccc(N3CCC(C(=O)O)CC3)c(F)c2)n1` [Compound 316, 2-{[3-fluoro-4-(4-carboxylicpiperidino)]phenylamino}-6-(methylamino)-3-nitropyridine], the “Cell viability (%) Calvarial cell” value falls from 115% to 95%.

Compared with `CC(C)Nc1ccc([N+](=O)[O-])c(Nc2ccc(N3CCC(C(N)=O)CC3)c(F)c2)n1` [Compound 290, 2-{[3-fluoro-4-(4-carbamoylpiperidino)]phenylamino}-6-(isopropylamino)-3-nitropyridine], `CC(C)Nc1ccc([N+](=O)[O-])c(Nc2ccc(N3CCC(C(=O)O)CC3)c(F)c2)n1` [Compound 317, 2-{[3-fluoro-4-(4-carboxylicpiperidino)]phenylamino}-6-(isopropylamino)-3-nitropyridine] is lower in “Cell viability (%) Calvarial cell” value: 119% for the first, 99% for the second.

Going from `CC(C)CNc1ccc([N+](=O)[O-])c(Nc2ccc(N3CCC(C(N)=O)CC3)c(F)c2)n1` [Compound 291, 2-{[3-fluoro-4-(4-carbamoylpiperidino)]phenylamino}-6-(isobutylamino)-3-nitropyridine] to `CC(C)CNc1ccc([N+](=O)[O-])c(Nc2ccc(N3CCC(C(=O)O)CC3)c(F)c2)n1` [Compound 318, 2-{[3-fluoro-4-(4-carboxylicpiperidino)]phenylamino}-6-(isobutylamino)-3-nitropyridine], the “Cell viability (%) Calvarial cell” value rises from 87% to 103%.

Compared with `CC(C)(C)Nc1ccc([N+](=O)[O-])c(Nc2ccc(N3CCC(C(N)=O)CC3)c(F)c2)n1` [Compound 292, 2-{[3-fluoro-4-(4-carbamoylpiperidino)]phenylamino}-6-(t-butylamino)-3-nitropyridine], `CC(C)(C)Nc1ccc([N+](=O)[O-])c(Nc2ccc(N3CCCC(C(N)=O)C3)c(F)c2)n1` (centres unmarked) [Compound 304, 2-{[3-fluoro-4-(3-carbamoylpiperidino)]phenylamino}-6-(t-butylamino)-3-nitropyridine] is higher in “Cell viability (%) Calvarial cell” value: 102% for the first, 103% for the second.

Compared with `NC(=O)C1CCN(c2ccc(Nc3nc(N4CCC(O)CC4)ccc3[N+](=O)[O-])cc2F)CC1` [Compound 293, 2-{[3-fluoro-4-(4-carbamoylpiperidino)]phenylamino}-6-(4-hydroxypiperidino)-3-nitropyridine], `O=C(O)C1CCN(c2ccc(Nc3nc(N4CCC(O)CC4)ccc3[N+](=O)[O-])cc2F)CC1` [Compound 319, 2-{[3-fluoro-4-(4-carboxylicpiperidino)]phenylamino}-6-(4-hydroxypiperidino)-3-nitropyridine] is higher in “Cell viability (%) Calvarial cell” value: 104% for the first, 112% for the second.

Compared with `NC(=O)C1CCN(c2ccc(Nc3nc(N4CCNCC4)ccc3[N+](=O)[O-])cc2F)CC1` [Compound 294, 2-{[3-fluoro-4-(4-carbamoylpiperidino)]phenylamino}-6-(piperazin-1-yl)-3-nitropyridine], `NC(=O)C1CCCN(c2ccc(Nc3nc(N4CCNCC4)ccc3[N+](=O)[O-])cc2F)C1` (centres unmarked) [Compound 306, 2-{[3-fluoro-4-(3-carbamoylpiperidino)]phenylamino}-6-(piperazin-1-yl)-3-nitropyridine] is higher in “Cell viability (%) Calvarial cell” value: 95% for the first, 122% for the second.

Going from `CN1CCN(c2ccc([N+](=O)[O-])c(Nc3ccc(N4CCC(C(N)=O)CC4)c(F)c3)n2)CC1` [Compound 295, 2-{[3-fluoro-4-(4-carbamoylpiperidino)]phenylamino}-6-(4-methylpiperazin-1-yl)-3-nitropyridine] to `CN1CCN(c2ccc([N+](=O)[O-])c(Nc3ccc(N4CCC(C(=O)O)CC4)c(F)c3)n2)CC1` [Compound 320, 2-{[3-fluoro-4-(4-carboxylicpiperidino)]phenylamino}-6-(4-methylpiperazin-1-yl)-3-nitropyridine], the “Cell viability (%) Calvarial cell” value falls from 106% to 101%.

First: NC(=O)C1CCN(c2ccc(Nc3nc(N4CCOCC4)ccc3[N+](=O)[O-])cc2F)CC1 [Compound 296, 2-{[3-fluoro-4-(4-carbamoylpiperidino)]phenylamino}-6-morpholino-3-nitropyridine]
Second: NC(=O)C1CCCN(c2ccc(Nc3nc(N4CCOCC4)ccc3[N+](=O)[O-])cc2F)C1 (centres unmarked) [Compound 308, 2-{[3-fluoro-4-(3-carbamoylpiperidino)]phenylamino}-6-morpholino-3-nitropyridine]
The “Cell viability (%) Calvarial cell” value of the first is lower: 97% for the first, 109% for the second.

Going from `NC(=O)C1CCN(c2ccc(Nc3nc(N4CCC(N)CC4)ccc3[N+](=O)[O-])cc2F)CC1` [Compound 297, 2-{[3-fluoro-4-(4-carbamoylpiperidino)]phenylamino}-6-(4-aminopiperidino)-3-nitropyridine] to `NC(=O)C1CCCN(c2ccc(Nc3nc(N4CCC(N)CC4)ccc3[N+](=O)[O-])cc2F)C1` (centres unmarked) [Compound 309, 2-{[3-fluoro-4-(3-carbamoylpiperidino)]phenylamino}-6-(4-aminopiperidino)-3-nitropyridine], the “Cell viability (%) Calvarial cell” value rises from 107% to 110%.

Going from `NC(=O)C1CCN(c2ccc(Nc3nc(NCc4ccncc4)ccc3[N+](=O)[O-])cc2F)CC1` [Compound 298, 2-{[3-fluoro-4-(4-carbamoylpiperidino)]phenylamino}-6-[(4-pyridyl)methylamino]-3-nitropyridine] to `O=C(O)C1CCN(c2ccc(Nc3nc(NCc4cccnc4)ccc3[N+](=O)[O-])cc2F)CC1` [Compound 321, 2-{[3-fluoro-4-(4-carboxylicpiperidino)]phenylamino}-6-[(3-pyridyl)methylamino]-3-nitropyridine], the “Cell viability (%) Calvarial cell” value falls from 108% to 101%.

Compared with `NC(=O)C1CCN(c2ccc(Nc3nc(NCCN4CCOCC4)ccc3[N+](=O)[O-])cc2F)CC1` [Compound 300, 2-{[3-fluoro-4-(4-carbamoylpiperidino)]phenylamino}-6-[2-(morpholin-1-yl)ethylamino]-3-nitropyridine], `NC(=O)C1CCCN(c2ccc(Nc3nc(NCCN4CCOCC4)ccc3[N+](=O)[O-])cc2F)C1` (centres unmarked) [Compound 313, 2-{[3-fluoro-4-(3-carbamoylpiperidino)]phenylamino}-6-[2-(morpholin-1-yl)ethylamino]-3-nitropyridine] is lower in “Cell viability (%) Calvarial cell” value: 118% for the first, 106% for the second.

Compared with `CNc1ccc([N+](=O)[O-])c(Nc2ccc(N3CCCC(C(N)=O)C3)c(F)c2)n1` (centres unmarked) [Compound 301, 2-{[3-fluoro-4-(3-carbamoylpiperidino)]phenylamino}-6-(methylamino)-3-nitropyridine], `CC(C)Nc1ccc([N+](=O)[O-])c(Nc2ccc(N3CCCC(C(N)=O)C3)c(F)c2)n1` (centres unmarked) [Compound 302, 2-{[3-fluoro-4-(3-carbamoylpiperidino)]phenylamino}-6-(isopropylamino)-3-nitropyridine] is higher in “Cell viability (%) Calvarial cell” value: 95% for the first, 103% for the second.

Going from `CC(C)CNc1ccc([N+](=O)[O-])c(Nc2ccc(N3CCCC(C(N)=O)C3)c(F)c2)n1` (centres unmarked) [Compound 303, 2-{[3-fluoro-4-(3-carbamoylpiperidino)]phenylamino}-6-(isobutylamino)-3-nitropyridine] to `CCN(CC)c1ccc([N+](=O)[O-])c(Nc2ccc(N3CCCC(C(N)=O)C3)c(F)c2)n1` (centres unmarked) [Compound 315, 2-{[3-fluoro-4-(3-carbamoylpiperidino)]phenylamino}-6-(diethylamino)-3-nitropyridine], the “Cell viability (%) Calvarial cell” value rises from 102% to 104%.

Going from `NC(=O)C1CCCN(c2ccc(Nc3nc(N4CCC(O)CC4)ccc3[N+](=O)[O-])cc2F)C1` (centres unmarked) [Compound 305] to `CN1CCN(c2ccc([N+](=O)[O-])c(Nc3ccc(N4CCCC(C(N)=O)C4)c(F)c3)n2)CC1` (centres unmarked) [Compound 307, 2-{[3-fluoro-4-(3-carbamoylpiperidino)]phenylamino}-6-(4-methylpiperazin-1-yl)-3-nitropyridine], the “Cell viability (%) Calvarial cell” value rises from 107% to 131%.

First: NC(=O)C1CCCN(c2ccc(Nc3nc(NCc4cccnc4)ccc3[N+](=O)[O-])cc2F)C1 (centres unmarked) [Compound 310, 2-{[3-fluoro-4-(3-carbamoylpiperidino)]phenylamino}-6-[(3-pyridyl)methylamino]-3-nitropyridine]
Second: NC(=O)C1CCCN(c2ccc(Nc3nc(NCCCn4ccnc4)ccc3[N+](=O)[O-])cc2F)C1 (centres unmarked) [Compound 312, 2-{[3-fluoro-4-(3-carbamoylpiperidino)]phenylamino}-6-[(3-imidazol-1-yl)propylamino]-3-nitropyridine]
The “Cell viability (%) Calvarial cell” value of the first is lower: 97% for the first, 98% for the second.

`NC(=O)C1CCCN(c2ccc(Nc3nc(NCCCN4CCOCC4)ccc3[N+](=O)[O-])cc2F)C1` (centres unmarked) [Compound 314, 2-{[3-fluoro-4-(3-carbamoylpiperidino)]phenylamino}-6-[(3-morpholin-1-yl)propylamino]-3-nitropyridine] was tested, and the “Cell viability (%) Calvarial cell” value was 103%.
